Results from patent publication US20110173718A1, “HERBICIDE TOLERANT PLANTS” (SYNGENTA CROP PROTECTION, INC., priority 2008, published 2011).

Experiments:
Chlamydomonas HST = target: T1, Chlamydomonas HST (Chlamydomonas reinhardtii, UniProt A1JHN0); assay: HST assay (TLC, MFBQ formed), recombinant Chlamydomonas HST in E. coli membranes; type: biochemical; details: 25 ppm, TLC, estimated amount of MFBQ formed, relative to controls; for inhibition at 25 ppm: read-out: Chlamydomonas. HST % I at 25 ppm
T1 construct: GST (N); made in house; host or cells: E. coli (BL21A1 / BL21DE3), membrane fraction
T1 sequence (A1JHN0 51-370): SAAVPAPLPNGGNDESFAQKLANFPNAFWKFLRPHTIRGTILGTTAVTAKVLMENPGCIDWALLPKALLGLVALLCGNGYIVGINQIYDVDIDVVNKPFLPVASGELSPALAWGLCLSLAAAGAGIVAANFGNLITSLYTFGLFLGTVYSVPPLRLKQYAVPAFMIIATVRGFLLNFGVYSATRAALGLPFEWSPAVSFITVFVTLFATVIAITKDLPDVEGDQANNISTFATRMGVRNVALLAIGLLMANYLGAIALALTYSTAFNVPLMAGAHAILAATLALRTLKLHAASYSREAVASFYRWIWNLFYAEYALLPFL
Description: Alternatively, Arabidopsis and Chlamydomonas mature HST coding sequences are cloned as GST N-terminal fusion enzymes and expressed in E. coli.
E. coli. BL21A1 cells expressing mature Arabidopsis or Chlamydonionas HST as a GST N-terminal fusion proteins are grown, harvested, broken and membrane fractions expressing HST produced.
For example, 1 ng of recombinant DNA is used to transform BL21DE3 cells to obtain a plateful of individual colonies. One of these colonies is picked and used to inoculate an overnight culture of 100 ml of Luria Broth (LB) supplemented with 50 ug/ml of kanamycin at final concentration, grown at 37° C. with shaking at 220 rpm. Next morning, 10 mls of the overnight culture is used to inoculate 11 of fresh sterile LB supplemented with 50 ug/ml of kanamycin at final concentration, grown at 37° C. with shaking at 220 rpm until the OD reached 0.6 at 600 nm, induced with the addition of 0.1 mM IPTG and left to induce at 15° C. overnight. The cells are harvested by centrifugation at 4600 rpm for 10 min at 4° C. and the pellet stored at −80° C. […] E. coli cell pellet is then resuspended in 25 ml of 50 mM Tris, pH 7.5 supplemented with Roche EDTA-free protease inhibitor tablet (one tablet in 200 mls of buffer). 10 ml of cells are lysed by sonication on ice. The resultant lysed cells are centrifuged at 3000 g for 10 min to pellet the cell nuclei/debris etc. 10 mls of supernatant is aspirated and centrifuged at 150,000 g for 60 min at 4° C. The pellet containing the membranes is resuspended in 2 ml of the above buffer. These samples are stored as 100 ul aliquots at −80° C., after being diluted with addition of glycerol to 50% v/v.
(§1) Prenyltransferase (HST) activities are measured by determining the prenylation rates of [U—^14C]homogentisate using farnesyl diphosphate (FDP) as prenyl donor. ^14C homogentisate is prepared from ^14C tyrosine using L amino acid oxidase and HPPD. For inhibitor testing, compounds are dissolved in dimethylsulfoxide (DMSO). DMSO added at up to 2% v/v has no effect on assays. Control assays contain DMSO at the same concentration as in inhibitor containing assays.
The recombinant Chlamydomonas HST expressed in E. coli membranes is assayed in standard reaction mixtures with 200 μM FDP and 100 μM ^14C-homogentisate (40 dpm/pmol) in 50 mM Tricine-NaOH pH 8.5, 20 mM MgCl2. Assays are started with the addition of enzyme and run for ˜20 min at 28° C.
Recombinant Arabidopsis and Rice HSTs are expressed in insect cells. Assays are run as for Chlamydomonas HST except that assay temperature is 27° C. Assays are stopped with 300 ul of solvent mix (1:2, Chloroform:Methanol) and 100 ul of 0.5% NaCl, agitated/mixed and spun at 13,000 rpm in a benchtop eppendorf centrifuge for 5 minutes. 80 ul of the lower phase extract is loaded onto a TLC plate (silica Gel 60, 20 cm×20 cm) FLA3000 system and run for 35 minutes in dichloromethane. The radioactivity is quantified using a Fuji Phosphoimager and band intensity integrated as quantitative measure of product amount. The bands corresponding to oxidised and reduced 2-methyl-6-farnesyl-1,4-benzoquinol (MFBQ) are identified and the total of the two (oxidised and reduced) band intensities is calculated in order to estimate the total amount of MFBQ product formation. Specific activities of 8 pmol MFBQ min^−1 mg^−1 protein (23 pmol) and 7 pmol MFBQ min^−1 mg^−1 protein (14 pmol) are, for example, estimated for the GST-fusion truncated Arabidopsis HST gene (SEQ ID # 3) expressed in membranes from insect cells 4 days and 5 days after transfection respectively. Similar results are noted from past literature on E. coli expressed Arabidopsis HST. Activity from the insect cell expressed GST-fusion truncated rice HST (SEQ ID# 4) is similar. Expression of the non-truncated HST coding sequences as GST fusions also gives HST activity. […]

[1] = test system: HST in spinach chloroplast extract; assay: HST assay (TLC, MFBQ formed), spinach chloroplast extract; type: biochemical; details: 25 ppm; TLC, estimated amount of MFBQ formed, relative to controls
Description: HST enzyme preparations for assay are also prepared directly from fresh plant material. For example HST enzyme preparations are from spinach. In the first step intact spinach chloroplasts are prepared from two lots of 500 g of fresh baby spinach leaves (e.g from the salad section of the local supermarket). Prepacked spinach is usually already washed, but if buying loose leaves these must be rinsed in water before proceeding. Stalks, large leaves and mid-ribs are removed. Each 500 g lot of leaves is added to 1.5 l of ‘Grinding medium’ in a 2 L plastic beaker. Grinding medium is cold (4° C.) 50 mM Tricine/NaOH buffer at pH 7.1 containing 330 mM glucose, 2 mM sodium isoascorbate, 5 mM MgCl2 and 0.1% bovine serum albumen The beaker, kept at 4° C., is placed under a Polytron 6000 blender, fitted with a 1.5″cutting probe and the mixture blended in short bursts of 5-8 sec up to 8-10K rpm until all the leaves are macerated. The homogenate is filtered into a 5 L beaker (embedded in an ice bucket) through four layers of muslin, and two layers of 50μ mesh nylon cloth. The filtrate is transferred to 250 ml buckets of a Beckman GS-6 centrifuge and spun at […] (3020 rpm) for 2 min at 4° C. The supernatant is drained away and discarded to leave a sediment of chloroplasts. Chloroplasts are resuspended in a few ml of cold resuspension medium by gentle swirling and gentle use of a quill brush soaked in resuspension medium. Resuspension medium is 50 mM Hepes/KOH pH 7.8 containing 330 mM sorbitol, 2 mM EDTA, 5 mM KH2PO4, 2 mM MgCl2 and 0.1% bovine serum albumen at 4° C. The chloroplasts are resuspended in 5-10 ml of resuspension buffer, recentrifuged down and resuspended again in order to wash them. The chloroplasts are then once again centrifuged down and then broken by resuspension in about 5 ml of 50 mM Tricine-NaOH pH 7.8 to a protein concentration of about 40 mg/ml. The solution is stored frozen at −80° C. in aliquots. This resuspension is defrosted and used directly in HST activity assays. Alternatively, chloroplasts are prepared resuspended in 50 mM Tris/HCl buffer at pH 7.8 containing 330 mM sorbitol (alternative resuspension buffer) and layered on top of a percol gradient (comprising the same buffer containing 45% percol), spun down, the intact chloroplast fraction taken and washed 2 or 3 times in the alternative resuspension buffer and then spun down again, resuspended in breaking buffer (without sorbitol), flash frozen and stored in aliquots at −80° C.
as §1
Assays using spinach chloroplast extracts (100 μl final volume) contain up to 2 mg of chloroplast protein, 50 mM Tricine-NaOH pH 8.5, 50 mM MgCl2, 200 μM farnesyl diphosphate (FDP) and 26 μM ^14C-homogentisate (167 dpm/pmol). Assays are run for about an hour at 28° C. […] Lipophilic reactions products are extracted and analyzed essentially as described in the literature.
Using the above assays percentage inhibition of the amount of MFBQ formed at a range of doses of inhibitors relative to the control amount obtained with no inhibitor present is reported (Table 1). The better inhibitors give greater percentage inhibition at lower doses.

Compound	Chlamydomonas. HST % I at 25 ppm (Chlamydomonas HST)	Spinach chloroplast extract % I at 25 ppm [1]	inhibition at 25 ppm (Chlamydomonas HST)
O=S1(=O)C(c2c(Cl)ccc(Cl)c2Cl)=C(O)c2nccnc2N1CC(F)F [Compound 3.4]	50%	40%	
Oc1c(F)c(F)nc(F)c1Br [Compound 1.3]		65%	55%
COc1nc(C)nc(NC(=O)NS(=O)(=O)c2ccccc2Cl)n1 [Chlorsulfuron, reference compound]		0%	0%
O=c1c(-c2c(Cl)cncc2Cl)c(O)c2nccnc2n1CC(F)F [Compound 5.1]	20%	10%	
CN1c2nccnc2C(O)=C(c2ccc(Cl)cc2Cl)S1(=O)=O [Compound 3.2]	0%	15%	
Oc1c(Br)c(F)nc(F)c1Br [Compound 1.4]		75%	65%
O=S1(=O)C(c2c(Cl)cccc2C(F)(F)F)=C(O)c2nccnc2N1CC(F)F [Compound 3.3]	20%	35%	
CCN1c2nccnc2C(O)=C(c2c(Cl)cccc2C(F)(F)F)S1(=O)=O [Compound 3.1]	20%	20%	
Oc1c(Cl)c(Cl)nc(Cl)c1Cl [Compound 1.2]		80%	70%
CCc1cc(CC)c(-c2c(O)c3nccnc3[nH]c2=O)c(CC)c1 [Compound 2.10]	50%	0%	
O=c1[nH]c2nccnc2c(O)c1-c1ccccc1OC(F)(F)F [Compound 2.12]	0%	0%	
